# Measurements from patent US20150253330A1, “PRE-SELECTION OF SUBJECTS FOR THERAPEUTIC TREATMENT WITH AN HSP90 INHIBITOR BASED ON HYPOXIC STATUS” (Synta Pharmaceuticals Corp., priority 2012, published 2015).
# pIC50: −log10 of the molar value. Entries after “also recorded” stand apart in the source; their conditions may differ.
# Legend:
# [1] = test system: HPAC and ASPC-1 xenograft; assay: In vivo tumor growth delay and angiogenic assay, pancreatic xenografts; parameters: species or system SCID mice; conditions: 100 mg/kg IV once a week for three weeks
# Method: (§1) It's postulated that functional inhibition of Hsp90 by ganetespib can inhibit angiogenesis and growth in vitro and in vivo models of pancreatic cancer. PANC-1 and HPAC cell lines were treated with vehicle or G (50 nM) for 24 h and lysates were analyzed by Western blot. Egg CAM and matrigel plug assays were performed to quantify the effects of ganetespib on angiogenesis. Efficacy of ganetespib (100 mg/kg) was assessed in mice bearing HPAC and ASPC-1 xenograft.
# In vivo tumor growth delay and angiogenic assay: Five-week-old SCID mice were divided into 4 groups with 10 animals in each group. First two groups received 100 μl of Ice cold matrigel medium containing ASPC-1 (1×10^6 cells/100 μl) and other two groups received HPAC cell lines subcutaneously. Once the tumor reached 100-120 mm^3, the groups 2 and 4 received ganetespib (100 mg/kg body weight) IV once a week for three weeks. […] Every other day, tumor was measured using vernier caliper scale for a total of five weeks, when the animals were sacrificed. Skin around the implanted matrigel tumor was removed carefully and the tumor with its surrounding was photographed under visible light.
# [2] = test system: human KRAS mutant NSCLC tumor xenografts; assay: KRAS mutant NSCLC tumor xenografts in vivo; parameters: species or system mice
# Source text: Female immunodeficient CD-1 (nude) mice (Charles River Laboratories, Wilmington, Mass.) were maintained in a pathogen-free environment, and all in vivo procedures were approved by the Synta Pharmaceuticals Corp. Institutional Animal Care and Use Committee. A549 NSCLC cells (7.5×10^6) were subcutaneously implanted into the animals. Mice bearing established tumors (100-200 mm^3) were randomized into treatment groups of 8 and i.v. dosed via the tail vein with either vehicle, ganetespib formulated in 10/18 DRD (10% DMSO, 18% Cremophor RH 40, 3.6% dextrose, 68.4% water) or p.o. dosed with BEZ235 formulated in PEG300/NMP (90% PEG300, 10% N-Methylpyrrolidone). Animals were treated with ganetespib at 50 mg/kg weekly or BEZ235 at 10 mg/kg 5 times a week, either alone or in combination. Tumor growth inhibition was determined as described previously. See Proia et al, PLoS One. 2011; 6(4):e18552.
# [3] = test system: ECC12; assay: 72 hr viability by Syto60, gastric cell line; assay type: cell-based; conditions: Homo sapiens, Syto60 (lower), read-out: ganetespib IC50
# [4] = test system: SNU-1; assay: 72 hr viability by Syto60, gastric cell line; assay type: cell-based; conditions: Homo sapiens, SNU1, Syto60 (lower), read-out: ganetespib IC50
# [5] = test system: SUM149 inflammatory breast cancer (IBC) cells; assay: 24 hr viability assay, inflammatory breast cancer cells; assay type: cell-based; conditions: 24 hr after exposure, FIG. 2
# Method: Ganetespib was assayed in inflammatory breast cancer (IBC), a rare but aggressive form of breast cancer distinct from the subtypes presented above.
# [6] = test system: H358 cells; assay: Combinatorial viability analysis, 72 hours; assay type: cell-based
# Method: (§2) For combinatorial analysis, cells were seeded in 96-well plates at a predetermined, optimum growth density for 24 h prior to the addition of drug or vehicle to the culture medium. Drug combinations were applied at a non-constant ratio over a range of concentrations for 72 or 96 hours. […] Cell viability was assessed by either AlamarBlue® (Invitrogen, Carlsbad, Calif.) or CellTiter-Glo® assays and normalized to vehicle controls. For each combination study, the level of growth inhibition (fraction affected) is plotted relative to vehicle control. Data are presented as one relevant combination point and the corresponding single agent data for each cell line tested.
# [7] = test system: A549 cells; assay: Combinatorial viability analysis, 72 hours; assay type: cell-based
# Method: as §2
# [8] = test system: H2030 cells; assay: Combinatorial viability analysis, 72 hours; assay type: cell-based
# Method: as §2
# [9] = test system: H2009 cells; assay: Combinatorial viability analysis, 72 hours; assay type: cell-based
# Method: as §2
# [10] = test system: Hsp90 client proteins; assay: Western blot of Hsp90 client proteins in MKN45 cells; assay type: cell-based
# [11] = test system: advanced GIST; assay: Phase 2 study in gastrointestinal stromal tumors (GIST); assay type: in vivo, human
# Method: Patients with advanced (e.g., metastatic or unresectable) GIST following failure of prior therapy, e.g., imatinib or sunitinib, received ganetespib (200 mg/m^2) as a 1 hour IV infusion once per week for 3 weeks of a 28 day cycle. GIST status was assessed at 8 weeks per RECIST, until progression. […] Hsp90 client protein levels were analyzed in biopsies pre-therapy and 24-48 h post-treatment with ganetespib in a subset of patients.
# [12] = test system: VEGF secretion; assay: VEGF ELISA of conditioned medium of pancreatic cancer cell lines; assay type: cell-based
# Method: VEGF concentration in the conditioned medium (from control and treated cells) was determined using a commercial Human VEGF Quantikine ELISA kit (R&D systems, Minneapolis, Minn.) as per manufacturer's instructions.
# [13] = test system: angiogenesis; assay: Egg CAM and matrigel plug angiogenesis assays; parameters: species or system chicken; conditions: all three models
# Method: The conditioned medium was collected from control and treated cells. 100 μl of conditioned medium, either control or treated, was injected into fertilized chicken eggs. Eggs were incubated at 37° C. for 15 days, then dissected and the membrane was photographed.
# as §1
# Mia-PaCa2, PANC-1 and HPAC cells were treated with Ganetespib (50 nM) or control for 24 hours, the conditioned medium was harvested and 100 μl of conditioned or control medium was injected into fertilized chicken eggs (Avian Vaccine Service center, North Franklin, Conn.). Eggs were incubated at 37° C. for 15 days and dissected. Chorioallantoic membrane was photographed.
# [14] = test system: Detroit 562 H/N cancer cells; assay: Single agent viability assay, 72 hr, head and neck cancer cells; assay type: cell-based
# Source text: Head and neck (H/N) cancer refers to a group of biologically similar cancers originating from the upper autodigestive tract. First line therapies include EGFR inhibitors and platins. Modulation of EGFR and other client proteins by ganetespib was investigated in Detroit 562 H/N cancer cells.
# [15] = test system: Hsp90 client proteins; assay: Western blot of Hsp90 client proteins in AGS gastric cancer cells; assay type: cell-based
# Method: Ganetespib was also evaluated for its effects on Hsp90 client proteins in AGS gastric cancer cells by western blot. […] Similar to the observation in melanoma cells, exposure to ganetespib […] BRAF expression.
# [16] = human pancreatic tumor xenografts
# [17] = ganetespib combined with pemetrexed
# [18] = ganetespib in combination with gemcitabine
# [19] = low nanomolar ganetespib combined with camptothecin
structure (smiles),measurement,setting,value
CC(C)c1cc(-c2nnc(O)n2-c2ccc3c(ccn3C)c2)c(O)cc1O [ganetespib],Angiogenesis in vivo,[1]; [16],inhibition of angiogenesis in vivo; also recorded: decreases angiogenesis
same,Tumor growth,[1]; [16],significant tumor growth delay; also recorded: significantly inhibits tumor growth
same,Deaths from the treatment,[1]; SCID mice,None of the animals died
same,Tumor growth inhibition in the combination arm,[2]; ganetespib combined with a PI3K/mTOR inhibitor,considerable improvement in tumor growth inhibition
same,Growth of KRAS mutant NSCLC tumor xenografts,[2]; single agent,effectively suppressed the growth
same,Tumor regression,[2]; single agent,did not induce tumor regression
same,pIC50,[3],7.92
same,pIC50,[4],8.22
same,Anticancer activity against SUM149 cells,[5],considerable anticancer activity
same,Increase in cytotoxicity,[6]; [17],marginal increase in cytotoxicity
same,Benefit of combination,[6]; [18],no benefit
same,Fold increase in cytotoxicity,[6]; [19],1.4 fold
same,Increase in cytotoxicity,[7]; [17],marginal increase in cytotoxicity
same,Increased cell death,[7]; [18],1.4 fold
same,Enhanced cell death,[8]; [17],2.4 fold
same,Fold increase in cytotoxicity,[8]; [19],3.4 fold
same,Enhanced cell death,[9]; [17],1.5 fold
same,Increased cell death,[9]; [18],2.3 fold
same,Fold increase in cytotoxicity,[9]; [19],1.5 fold
same,Effect on Hsp90 client proteins by western blot,[10],complete degradation of MET and IGF-IR
same,Adverse events reported in >20% of patients,"[11]; 200 mg/m^2 once per week for 3 weeks of a 28 day cycle, generally NCI CTC grade 1-2","diarrhea, fatigue, nausea, vomiting, increased alkaline phosphatase, headache, insomnia, and abdominal pain"
same,Evaluable patients with SD,"[11]; 4 SD 16 weeks, 8 SD≧8 weeks",12/23
same,Client proteins in paired tumor biopsies,"[11]; biopsies from 4 patients, pre-therapy and 24-48 h post-treatment",did not show prolonged inhibition of activated KIT or its downstream pathways
same,Tolerability,"[11]; once-weekly dosing, no evidence of severe liver, ocular, cardiac or renal toxicity",well-tolerated
same,VEGF secretion in the culture medium,[12],reduced VEGF secretion; also recorded: decrease in VEGF secretion; also recorded: down-regulation of VEGF secretion
same,Angiogenesis compared to vehicle,[13],reduced angiogenesis
same,Cell viability after a 72 hr exposure,[14]; Detroit 562,A fraction of cells remained viable
same,pIC50,"[14]; Homo sapiens, Detroit 562, single agent viability, 72 hr",7.38
same,Effect on Hsp90 client proteins by western blot,[15],"abolished the expression of EGFR, IGF-IR, C-RAF"
